Experimental data from patent US20170216252A1, “ANTI-BACTERIAL PYRUVATE KINASE MODULATOR COMPOUNDS, COMPOSITIONS, USES AND METHODS” (SIMON FRASER UNIVERSITY, priority 2014, published 2017).
≈ marks a conversion by molar mass, not a printed value. Where two headings read alike, the source gives them in different places.

Legend:
S. aureus ATCC 29213 = test: In vitro susceptibility, broth microdilution MIC; format: cell-based, Staphylococcus aureus
Summary of the method: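 The MIC against S. aureus 29213 was determined by CLSI 2-fold serial broth microdilution in Mueller Hinton broth. Plates were incubated for 18–24 h at 37 °C and read at OD600 with background subtracted. The MIC was the lowest concentration giving complete growth inhibition versus compound-free wells.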

MRSA PK = biological target: T1, MRSA PK (Staphylococcus aureus, UniProt Q6GG09); test: MRSA PK activity, continuous LDH-coupled assay; format: biochemical, S. aureus (MRSA strain Sanger 252); conditions: for inhibition at 10 µM / inhibition at 1 µM: read-out: % inhibition at the highest concentration tested (IC50); for fold more potent: compared to 10a
T1 construct: His tag (pET-28a(+) vector) (N); made in house; host or cells: E. coli BL-21 (DE3)
T1 sequence (Q6GG09 whole entry): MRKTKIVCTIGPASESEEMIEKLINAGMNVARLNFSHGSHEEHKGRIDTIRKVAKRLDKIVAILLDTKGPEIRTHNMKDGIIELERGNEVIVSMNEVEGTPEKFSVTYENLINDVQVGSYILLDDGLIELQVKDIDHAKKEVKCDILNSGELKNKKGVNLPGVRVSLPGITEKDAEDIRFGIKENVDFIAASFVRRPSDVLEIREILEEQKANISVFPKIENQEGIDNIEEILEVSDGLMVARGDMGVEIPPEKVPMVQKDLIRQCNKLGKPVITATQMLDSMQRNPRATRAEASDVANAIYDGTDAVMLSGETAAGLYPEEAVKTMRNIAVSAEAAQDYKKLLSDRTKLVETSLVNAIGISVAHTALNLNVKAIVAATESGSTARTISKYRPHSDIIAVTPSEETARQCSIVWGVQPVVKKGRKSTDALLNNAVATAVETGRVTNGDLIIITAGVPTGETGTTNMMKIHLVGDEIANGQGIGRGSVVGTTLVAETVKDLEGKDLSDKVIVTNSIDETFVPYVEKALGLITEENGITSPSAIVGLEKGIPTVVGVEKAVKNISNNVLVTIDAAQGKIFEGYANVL
Summary of the method: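 Activity was tracked as the 340 nm absorbance fall from NADH oxidation via coupled LDH, at 30 °C for ≤5 min. Reactions began on adding 15 nM recombinant His-tagged S. aureus PK, with inhibitor DMSO kept ≤1%. Four-parameter dose–response fitting gave IC50.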

[1] = Staphylococcus aureus, ATCC29213, Tables 1-6 and text, minimum concentration to give >98% inhibition of growth, read-out: MIC
[2] = Tables 1-6, 2 mM ADP, 10 mM PEP, 15 nM PK, read-out: IC50
[3] = Staphylococcus aureus, ATCC29213, Table 8, tested at least in duplicate, differing values all given, read-out: MIC

SMILES	MIC (S. aureus ATCC 29213; [1])	melting point	IC50 (MRSA PK; [2])	IC50 (MRSA PK)	other results
Fc1ccc2[nH]c(-c3cc4ccc(Br)cc4[nH]3)cc2c1 [Compound 10e, 6′-Bromo-5-fluoro-1H,1′H-2,2′-biindole]	0.3 µg/mL (≈ 0.911 µM)	246 to 248 °C	2.8 nM	–	–
Brc1ccc2c(c1)cc(-c1cc3ccc(Br)cc3[nH]1)n2CCN1CCCCC1 [Compound 72, 5,6′-dibromo-1-(2-(piperidin-1-yl)ethyl)-1H,1′H-2,2′-biindole]	> 64 µg/mL	102 to 104 °C	–	3.7 nM	–
Brc1ccc2[nH]c(CCc3cc4ccc(Br)cc4[nH]3)cc2c1 [Compound 28b, 6-bromo-2-(2-(5-bromo-1H-indol-2-yl)ethyl)-1H-indole]	> 64 µg/mL	208 to 210 °C	6.3 nM	–	–
Brc1ccc2[nH]c(-c3nc4ccccc4s3)cc2c1 [Compound 22d, 2-(5-Bromo-1H-indol-2-yl)benzo[d]thiazole]	> 64 µg/mL	208 to 210 °C	358 nM	–	–
Brc1ccc2[nH]c(-c3cc4ccccc4o3)cc2c1 [Compound 22e, 2-(Benzofuran-2-yl)-5-bromo-1H-indole]	–	236 to 238 °C	–	–	inhibition at 10 µM (MRSA PK): 45%
Brc1ccc2cc(-c3cc4cc(-c5ccccc5)ccc4[nH]3)[nH]c2c1 [Compound 10g, 6′-Bromo-5-phenyl-1H,1′H-2,2′-biindole]	> 64 µg/mL	237 to 239 °C	2.2 nM	–	–
COCn1c(-c2cc3ccc(Br)cc3[nH]2)cc2cc(Br)ccc21 [Compound 12c, 5,6′-Dibromo-1-(methoxymethyl)-1H,1′H-2,2′-biindole]	> 64 µg/mL	199 to 201 °C	1.9 nM	–	–
Brc1ccc2[nH]c(-c3nc4ccc(Br)cc4s3)cc2c1 [Compound 22g, 6-Bromo-2-(5-bromo-1H-indol-2-yl)benzo[d]thaizole]	> 64 µg/mL	246 to 248 °C	4.1 nM	–	fold more potent (MRSA PK): about 5 fold
Brc1cc2cc(-c3cc4ccccc4[nH]3)[nH]c2cc1Br [Compound 10j, 5,6-Dibromo-1H,1′H-2,2′-biindole]	–	233 °C (dec.)	–	–	inhibition at 10 µM (MRSA PK): 39%
Brc1ccc2cc(-c3cc4ccccc4[nH]3)[nH]c2c1 [Compound 10a, 6-Bromo-1H,1′H-2,2′-biindole]	2 µg/mL (≈ 6.43 µM)	199 to 201 °C	21.4 nM	–	fold more potent in the MIC assay (S. aureus ATCC 29213; compared to 10b): about 8 fold
Brc1ccc2cc(-c3cccc(-c4cc5ccccc5[nH]4)c3)[nH]c2c1 [Compound 33f, 2-(3-(1H-indol-2-yl)phenyl)-6-bromo-1H-indole]	–	224 to 226 °C	–	–	inhibition at 10 µM (MRSA PK): 36%
Brc1ccc2[nH]c(-c3cc4ccccc4s3)cc2c1 [Compound 22f, 2-(Benzo[b]thiophen-2-yl)-5-bromo-1H-indole]	> 64 µg/mL	269 to 271 °C	–	–	inhibition at 1 µM (MRSA PK): 42%
Brc1ccc2cc(-c3ccc(-c4cc5ccccc5[nH]4)cc3)[nH]c2c1 [Compound 33c, 2-(4-(1H-indol-2-yl)phenyl)-6-bromo-1H-indole]	> 64 µg/mL	> 300 °C	5.6 nM	–	–
Brc1ccc2cc(C#Cc3cc4ccccc4[nH]3)[nH]c2c1 [Compound 25a, 2-((1H-indol-2-yl)ethynyl)-6-bromo-1H-indole]	> 64 µg/mL	240 to 242 °C	7.1 nM	–	fold more potent (MRSA PK): 3 fold
Cn1c(-c2cc3cc(Br)ccc3[nH]2)cc2ccc(Br)cc21 [Compound 12b, 5′,6-Dibromo-1-methyl-1H,2′H-2,2′-biindole]	–	192 to 194 °C	–	–	inhibition at 10 µM (MRSA PK): 25%
Brc1ccc2cc(/C=C/c3cn4ccccc4n3)[nH]c2c1 [Compound 110, (E)-2-(2-(6-Bromo-1H-indol-2-yl)vinyl)imidazo[1,2-a]pyridine]	–	–	–	< 50 nM	MIC (S. aureus ATCC 29213; [3]): > 64 µg/mL
COc1c(Br)cccc1C(=O)Nc1nc2ccc(Br)cc2s1 [Compound 84, 3-Bromo-N-(6-bromobenzo[d]thiazol-2-yl)-2-methoxybenzamide]	> 64 µg/mL	–	–	–	inhibition at 10 µM (MRSA PK): 84%
Oc1ccc(Br)cc1/C=N/c1nc2ccc(Br)cc2s1 [Compound 58]	64 µg/mL (≈ 155 µM)	–	–	–	inhibition at 10 µM (MRSA PK): 77%

SMILES	MIC (S. aureus ATCC 29213; [1])	melting point	IC50 (MRSA PK; [2])	IC50 (MRSA PK)	other results
O=C(Nc1ccc(Br)cc1)c1cc2ccc(Br)cc2s1 [Compound 71, 6-bromo-N-(4-bromophenyl)benzo[b]thiophene-2-carboxamide]	> 64 µg/mL	–	–	–	inhibition at 10 µM (MRSA PK): 55%
Brc1ccc(/C=C/c2cc3ccc(Br)cc3[nH]2)cc1 [Compound 36b, (E)-6-bromo-2-(4-bromostyryl)-1H-indole]	> 64 µg/mL	–	–	1 nM	–
Brc1ccc2cc(CSc3nc4ccccc4[nH]3)[nH]c2c1 [Compound 148, 2-(((6-Bromo-1H-indol-2-yl)methyl)thio)-1H-benzo[d]imidazole]	–	–	–	> 1000 nM	MIC (S. aureus ATCC 29213; [3]): 32 µg/mL (≈ 89.3 µM)
O=C(O)c1c(/C=C/c2cc(Cl)cc(Cl)c2)[nH]c2cc(Br)ccc12 [Compound 150, (E)-6-Bromo-2-(3,5-dichlorostyryl)-1H-indole-3-carboxylic acid]	–	–	–	> 1000 nM	MIC (S. aureus ATCC 29213; [3]): 8 µg/mL (≈ 19.5 µM)
O=C(Nc1ccc(Br)cc1)c1cc2ccccc2[nH]1 [Compound 52]	> 32 µg/mL	–	–	–	inhibition at 10 µM (MRSA PK): 67%
O=C(Nc1nc2ccc(Br)cc2s1)c1cc2cc(Br)ccc2[nH]1 [Compound 82, 5-Bromo-N-(6-bromobenzo[d]thiazol-2-yl)-1H-indole-2-carboxamide]	> 64 µg/mL	–	–	22.5 nM	–
Brc1ccc2cc(/C=C/c3cc(-c4ccccc4)on3)[nH]c2c1 [Compound 105, (E)-3-(2-(6-Bromo-1H-indol-2-yl)vinyl)-5-phenylisoxazole]	–	–	–	> 100000 nM	MIC (S. aureus ATCC 29213; [3]): > 64 µg/mL
Brc1ccc2cc(C#Cc3cc4ccc(Br)cc4[nH]3)[nH]c2c1 [Compound 25b, 1,2-Bis(6-bromo-1H-indol-2-yl)ethyne]	> 64 µg/mL	–	2.4 nM	–	–
Oc1ccc(Br)cc1-c1ccnc(-c2cc3ccc(Br)cc3[nH]2)c1 [Compound 86, 4-bromo-2-(2-(6-bromo-1H-indol-2-yl)pyridin-4-yl)phenol]	> 64 µg/mL	–	–	–	inhibition at 10 µM (MRSA PK): 62%
Brc1ccc2cc(-c3ccc(-c4cc5ccc(Br)cc5[nH]4)s3)[nH]c2c1 [Compound 33b, 2,5-bis(6-bromo-1H-indol-2-yl)thiophene]	> 64 µg/mL	–	–	–	inhibition at 1 µM (MRSA PK): 28%
Clc1ccc(CCc2nc3ccc(Br)cc3[nH]2)cc1 [Compound 154, 6-bromo-2-(4-chlorophenethyl)-1H-benzo[d]imidazole]	–	–	–	> 1000 nM	MIC (S. aureus ATCC 29213; [3]): 16 µg/mL (≈ 47.7 µM); MIC (S. aureus ATCC 29213; Table 8, tested at least in duplicate, differing values all given): 32 µg/mL (≈ 95.3 µM)
O=[N+]([O-])c1cc(/C=C/c2cc3ccc(Br)cc3[nH]2)ccc1Cl [Compound 97, (E)-6-Bromo-2-(4-chloro-3-nitrostyryl)-1H-indole]	–	–	–	–	MIC (S. aureus ATCC 29213; [3]): > 64 µg/mL; EC50 (MRSA PK): 8.6 nM
O=C(c1cc2ccc(Br)cc2[nH]1)c1cc2ccccc2cc1O [Compound 42, (6-Bromo-1H-indol-2-yl)(3-hydroxynaphthalen-2-yl)methanone]	> 64 µg/mL	–	–	–	inhibition at 10 µM (MRSA PK): 72%
Clc1ccc(CCc2cc3ccc(Br)cc3[nH]2)cn1 [Compound 120, 6-Bromo-2-(2-(6-chloropyridin-3-yl)ethyl)-1H-indole]	–	–	–	50 to 100 nM	MIC (S. aureus ATCC 29213; [3]): > 64 µg/mL
O=C(Nc1nc2cc(Br)ccc2s1)c1cc2ccccc2[nH]1 [Compound 53, N-(5-Bromobenzo[d]thiazol-2-yl)-1H-indole-2-carboxamide]	> 64 µg/mL	–	50.9 nM	–	–
O=C(O)c1c(/C=C/c2ccc(Cl)nc2)[nH]c2cc(Br)ccc12 [Compound 152, (E)-6-Bromo-2-(2-(6-chloropyridin-3-yl)vinyl)-1H-indole-3-carboxylic acid]	–	–	–	> 1000 nM	MIC (S. aureus ATCC 29213; [3]): 64 µg/mL (≈ 169 µM)
O=C(Nc1nc2ccc(Br)cc2s1)c1cc(Br)ccc1O [Compound 51, 5-Bromo-N-(6-bromobenzo[d]thiazol-2-yl)-2-hydroxybenzamide]	> 64 µg/mL	–	3 nM	–	–
COC(=O)c1c(C(=O)Nc2ccc(Cl)nc2)[nH]c2cc(Br)ccc12 [Compound 138, Methyl 6-bromo-2-((6-chloropyridin-3-yl)carbamoyl)-1H-indole-3-carboxylate]	–	–	–	< 50 nM	MIC (S. aureus ATCC 29213; [3]): > 64 µg/mL
